In US6635641B2 (Agouron Pharmaceuticals, Inc., priority 2000, dated 2003):
Where a name gives a salt, the structure may show the parent alone. Read-outs that look alike come from different tables or passages of the source.

What was measured:
LCK tyrosine kinase = biological target: T1, LCK tyrosine kinase (Homo sapiens, UniProt P06239, C224D/P223M); assay: LCK spectrophotometric assay; format: biochemical; settings: for Ki: read-out: LCK-P Ki;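 as to all read-outs here: recombinant LCK kinase activity on poly(E4Y1), ADP formation coupled through PK/LDH to NADH oxidation, followed as absorbance loss at 340 nm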
T1 construct: starting from amino acid residue 223 to the end of the protein at residue 509; made in house; host or cells: insect cells

[1] = tested on: lung cancer cells (line MV522); assay: Cancer cell proliferation (MV522) assay (MTT); format: cell-based
Method: The protocol for assessing cellular proliferation in cancer cells is similar to that used for assessments in HUVEC cells. Two thousand lung cancer cells (line MV522, acquired from American Tissue Cultural Collection) were seeded in growth media (RPMI1640 medium supplemented with 2 mM glutamine and 10% FBS). Cells are allowed to attach for 1 day prior to addition of test agents and/or vehicles. Cells are treated simultaneously with the same test agents used in the HUVEC assay. Cellular proliferation is quantified by MTT dye reduction assay 72 hours after exposure to test agents. The total length of the assay is 4 days vs. 5 for HUVEC cells because MV522 cells are not exposed to starvation medium.

[2] = biological target: T2, phosphorylated VEGF-R2Δ50 (FLVK-P) (Homo sapiens, UniProt P35968, DEL940-989/E990V); assay: VEGF-R2 coupled spectrophotometric assay, phosphorylated construct (FLVK-P); format: biochemical
T2 construct: VEGF-R2Δ50 contains residues 806-939 and 990-1171; made in house; host or cells: baculovirus/insect cells
Outline: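 Continuous PK/LDH-coupled spectrophotometric read (NADH loss at 340 nm) with 5–40 nM enzyme in 200 mM Hepes pH 7.5. Phosphorylated construct run at 1 mM ATP, 25 mM MgCl2, 5.1 mM poly(E4Y1); unphosphorylated at 3 mM ATP, 60 mM MgCl2 plus 2 mM MnCl2, 20 mM poly(E4Y1). Ki values derived from varied inhibitor concentrations.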

[3] = biological target: T3, unphosphorylated VEGF-R2Δ50 (FLVK) (Homo sapiens, UniProt P35968, DEL940-989/E990V); assay: VEGF-R2 coupled spectrophotometric assay, unphosphorylated construct (FLVK); format: biochemical;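 also: Baculovirus-expressed cytosolic kinase domain, ADP formation linked via pyruvate kinase and lactate dehydrogenase to NADH oxidation, read as falling absorbance at 340 nm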
T3 construct: VEGF-R2Δ50 contains residues 806-939 and 990-1171; made in house; host or cells: baculovirus/insect cells

[4] = tested on: human umbilical vein endothelial cells (HUVEC); assay: HUVEC proliferation assay (VEGF-stimulated, MTT); format: cell-based; settings: Homo sapiens
Outline: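 Proliferation measured by MTT reduction (4 h exposure, absorbance at 595) 72 hours after VEGF stimulation (final 6 ng/ml). Compound added to 24 h-starved HUVEC in F12K with 1% FBS and 0.1% final DMSO, one hour before the growth factor.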

[5] = biological target: T4, FGF-R1 intracellular kinase domain (Homo sapiens, UniProt P11362, C488A/C584S/L457V); assay: FGF-R spectrophotometric assay; format: biochemical; settings: for inhibition at 1 µM: read-out: FGF-P percent inhibition;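 as to all read-outs here: coupled PK/LDH enzyme assay: ADP from kinase phosphoryl transfer drives NADH oxidation, read as absorbance decrease at 340 nm, with 2 mM ATP and poly(E4Y1) substrate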
T4 construct: starting from the endogenous methionine residue 456 to glutamate 766; made in house; host or cells: baculovirus expression system

[6] = read-out: LCK-P percent inhibition
[7] = HUVEC, with albumin, read-out: Huvec + Albumin IC50
[8] = unphosphorylated VEGF-R2 construct
[9] = HUVEC proliferation with albumin, read-out: Huvec + Albumin IC50
[10] = VEGF-stimulated HUVEC proliferation, read-out: HUVEC IC50

T4 sequence (P11362 456-766 L457V/C488A/C584S): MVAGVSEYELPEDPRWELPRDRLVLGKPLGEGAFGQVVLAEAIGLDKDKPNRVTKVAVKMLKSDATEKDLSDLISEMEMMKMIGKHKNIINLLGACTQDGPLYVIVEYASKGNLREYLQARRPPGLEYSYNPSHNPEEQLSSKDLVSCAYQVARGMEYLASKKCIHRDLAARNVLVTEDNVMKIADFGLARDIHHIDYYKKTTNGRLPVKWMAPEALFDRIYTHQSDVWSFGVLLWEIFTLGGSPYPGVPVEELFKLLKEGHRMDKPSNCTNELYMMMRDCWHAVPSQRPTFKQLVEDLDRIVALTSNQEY
T2 sequence (P35968 with tags, fused parts or gaps DEL940-989/E990V limits assumed): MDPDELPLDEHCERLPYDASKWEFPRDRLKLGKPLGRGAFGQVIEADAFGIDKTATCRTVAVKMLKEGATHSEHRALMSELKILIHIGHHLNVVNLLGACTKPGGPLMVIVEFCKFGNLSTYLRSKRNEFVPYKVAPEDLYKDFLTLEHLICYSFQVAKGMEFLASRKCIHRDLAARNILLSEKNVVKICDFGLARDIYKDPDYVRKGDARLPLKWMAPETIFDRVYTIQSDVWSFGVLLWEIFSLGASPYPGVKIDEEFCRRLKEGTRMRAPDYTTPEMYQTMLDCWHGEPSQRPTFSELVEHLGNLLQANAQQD
T3 sequence (P35968 with tags, fused parts or gaps DEL940-989/E990V limits assumed): as above
T1 sequence (P06239 223-509 P223M/C224D): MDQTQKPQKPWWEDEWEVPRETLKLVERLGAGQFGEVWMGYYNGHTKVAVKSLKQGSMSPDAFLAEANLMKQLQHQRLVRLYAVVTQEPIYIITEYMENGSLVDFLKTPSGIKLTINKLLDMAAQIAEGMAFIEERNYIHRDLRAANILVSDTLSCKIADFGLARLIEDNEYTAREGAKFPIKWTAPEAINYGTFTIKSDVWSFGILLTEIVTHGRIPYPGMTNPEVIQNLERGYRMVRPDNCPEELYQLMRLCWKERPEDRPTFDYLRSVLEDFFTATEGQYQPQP

SMILES	IC50 ([1]; MV522) [nM]	Ki [2] [nM]	Ki [3] [nM]	inhibition at 1 µM (LCK tyrosine kinase; [6]) [%]	inhibition at 1 µM [5] [%]	IC50 ([4]; HUVEC, read-out: HUVEC IC50) [nM]	also measured
C/C=C/c1cc(COc2cc(C(=O)Nc3ccc(N4CCCC4)c(C(F)(F)F)c3)ccc2F)[nH]n1 [Example F-4, 4-Fluoro-3-[{5-((E)-1-propenyl)-2H-pyrazol-3-yl}methoxy]-N-[4-(pyrrolidin-1-yl)-3-trifluoromethylphenyl]benzamide]	2600	–	–	19	18	63	–
O=C(Nc1ccc(-n2cccn2)c(C(F)(F)F)c1)c1ccc(F)c(OCc2cccnc2)c1 [Example R-22, 4-Fluoro-N-(4-pyrazol-1-yl-3-trifluoromethyl-phenyl)-3-(pyridin-3-ylmethoxy)-benzamide]	–	–	–	13	21	–	inhibition at 0.05 µM ([3]; @ 50 nM, read-out: FLVK percent inhibition): 52%; IC50 [4, 7]: > 100 nM
COc1cc(NC(=O)c2cccc(CSc3ncnc4[nH]ncc34)c2)cc(OC)c1OC [Example B-1, N-(3,4,5-Trimethoxyphenyl)-3-[(1H-pyrazolo[3,4-d]pyrimidin-4-yl)sulfanylmethyl]benzamide]	–	111	25	–	–	–	Ki ([5]; read-out: FGF-P Ki): 87000 nM
COc1ccc(Nc2cc(COc3cc(C(=O)Nc4ccc(-n5ccnc5)c(C(F)(F)F)c4)ccc3F)[nH]n2)cn1 [Example J-1, 4-Fluoro-N-[4-(imidazol-1-yl)-3-trifluoromethylphenyl]-3-[5-(6-methoxypyridin-3-yl)amino-2H-pyrazol-3-ylmethoxy]-benzamide]	–	–	1.6	38	61	37	–
CC(=O)Nc1ccc(CCc2cccc(C(=O)Nc3ccc(N4CCNCC4)c(C(F)(F)F)c3)c2)cn1 [AA-1, 3-[2-(6-Acetylamino-pyridin-3-yl)-ethyl]-N-(4-piperazin-1-yl-3-trifluoromethylphenyl)-benzamide dihydrochloride]	–	–	–	44	39	–	inhibition at 0.05 µM ([2]; @ 50 nM, read-out: FLVK-P percent inhibition): 59%; Ki [3, 8]: 2.8 nM; IC50 [4, 9]: 25 nM
COc1ccc(Nc2cc(CCc3cccc(C(=O)Nc4ccc(N(C)C)c(C(F)(F)F)c4)c3)[nH]n2)cn1 [Example G-5, N-(4-Dimethylamino-3-trifluoromethylphenyl)-3-{2-[5-(6-methoxypyridin-3-yl)amino-2H-pyrazol-3-yl]ethyl}-benzamide]	> 10000	1.86	0.35	–	68	8.4	Ki (LCK tyrosine kinase): 69 nM
COc1cc(NC(=O)c2ccc(F)c(OCc3cc(Nc4ccc(OC)nc4)n[nH]3)c2)cc(C(F)(F)F)c1 [Example J-3, 4-Fluoro-3-[5-(6-methoxypyridin-3-yl)amino-2H-pyrazol-3-yl]methoxy-N-(3-methoxy-5-trifluoromethyl-phenyl)-benzamide]	–	–	0.92	44	54	50	–
O=C(Nc1cc(Cl)c(N2CCOCC2)c(Cl)c1)c1ccc(F)c(OCc2cccnc2)c1 [Example R-18, N-(3,5-Dichloro-4-morpholin-4-yl-phenyl)-4-fluoro-3-(pyridin-3-ylmethoxy)-benzamide]	> 10000	–	3.1	–	–	18	melting point: 209 to 211 °C
O=C(Nc1ccc(N2CCNCC2)c(C(F)(F)F)c1)c1ccc(F)c(OCc2cncc(-c3ccco3)c2)c1 [EE-1, 4-Fluoro-3-(5-furan-2-yl-pyridin-3-ylmethoxy)-N-(4-piperazin-1-yl-3-trifluoromethyl-phenyl)-benzamide dihydrochloride]	–	–	–	53	32	–	Ki [3, 8]: 3.4 nM; IC50 [4, 9]: 180 nM
COc1ccc(Nc2cc(CSc3cccc(NC(=O)c4ccc(O)c(C(C)(C)C)c4)c3)[nH]n2)cn1 [Example W-1, 3-t-Butyl-4-hydroxy-N-{3-[5-(6-methoxy-pyridin-3-ylamino)-2 H-pyrazol-3-ylmethylsulfanyl]-phenyl}-benzamide]	–	–	–	88	67	–	Ki [3, 8]: 0.12 nM; IC50 [4, 10]: 23 nM
O=C(Nc1cc(Cl)c(N2CCNCC2)c(Cl)c1)c1ccc(F)c(OCc2cccnc2)c1 [Example R-19, N-(3,5-Dichloro-4-piperazin-1-yl-phenyl)-4-fluoro-3-(pyridin-3-ylmethoxy)-benzamide]	1700	–	13.9	–	–	64	melting point: 81 to 85 °C
CC(=O)Oc1ccc(C(=O)Nc2cccc(OCc3cncc4ccccc34)c2)cc1C(C)(C)C [Example X-3, 4-Acetoxy-3-t-butyl-N-[3-(isoquinolin-4-ylmethoxy)phenyl]-benzamide]	–	–	–	–	–	–	IC50 ([1]; MV522 lung cancer cells): 4600 nM; melting point: 83 to 86 °C; Ki [3, 8]: 2.2 nM; IC50 [4, 10]: 30 to 100 nM
COc1ccc(Nc2cc(CCc3cccc(C(=O)Nc4cnc(N(C)C)c(C(F)(F)F)c4)c3)[nH]n2)cn1 [Example G-6, N-(6-Dimethylamino-5-trifluoromethylpyridin-3-yl)-3-{2-[5-(6-methoxypyridin-3-yl)amino-2H-pyrazol-3-yl]ethyl}-benzamide]	10000	1.98	–	–	74	12	Ki (LCK tyrosine kinase): 65 nM; IC50 [4, 7]: 59 nM

Second part, led by results:

IC50 ([1]; MV522) [nM]	Ki [2] [nM]	Ki [3] [nM]	inhibition at 1 µM (LCK tyrosine kinase; [6]) [%]	inhibition at 1 µM [5] [%]	SMILES	IC50 ([4]; HUVEC, read-out: HUVEC IC50) [nM]	also measured
> 10000	8.64	1	–	–	Cc1cc(NC(=O)c2cccc(CSc3ncnc4[nH]ncc34)c2)ccc1C(C)C [Example A-5, N-(4-Isopropyl-3-methylphenyl)-3-[(1H-pyrazolo[3,4-d]pyrimidin-4-yl)sulfanylmethyl]benzamide]	270	inhibition at 5 µM (LCK tyrosine kinase; @ 5 μM, read-out: LCK-P percent inhibition): 37%; melting point: 187 to 189 °C
> 10000	32	4.5	–	–	Cc1cc(NC(=O)c2cccc(CSc3cnccn3)c2)ccc1C(C)C [Example A-3, N-(4-Isopropyl-3-methylphenyl)-3-[(pyrazin-2-yl)sulfanylmethyl]benzamide]	240	melting point: 69 to 73 °C
> 10000	0.79	0.1	–	77	COc1ccc(Nc2cc(CCc3cccc(C(=O)Nc4ccc(C(C)C)c(C)c4)c3)[nH]n2)cn1 [Example G-4, N-(4-Isopropyl-3-methyl-phenyl)-3-{2-[5-(6-methoxypyridin-3-yl)amino-2H-pyrazol-3-yl]-ethyl}-benzamide]	16	Ki (LCK tyrosine kinase): 72 nM
3100	–	8.8	26	41	O=C(Nc1ccc(N2CCNCC2)c(C(F)(F)F)c1)c1ccc(F)c(OCc2cncc3ccccc23)c1 [Example R-15, 4-Fluoro-N-(4-piperazin-1-yl-3-trifluoromethyl-phenyl)-3-(isoquinolin-4-ylmethoxy)-benzamide]	36	IC50 [4, 7]: 130 nM
> 10000	0.592	–	–	81	CNS(=O)(=O)c1ccc(Nc2cc(CCc3cccc(C(=O)Nc4ccc(C(C)C)c(C)c4)c3)[nH]n2)cc1 [Example G-1, N-(4-Isopropyl-3-methyl-phenyl)-3-{2-[5-(4-(methylsulfamoyl)phenylamino)-2H-pyrazol-3-yl]-ethyl}-benzamide]	10	Ki (LCK tyrosine kinase): 90 nM; IC50 [4, 7]: 435 nM
8100	3.49	–	82	59	Cc1ccc(C(=O)Nc2ccc(C(C)C)c(C)c2)cc1OCc1cncc2ccccc12 [Example K-11, N-(4-Isopropyl-3-methyl-phenyl)-4-methyl-3-(Isoquinolin-4-yl)methoxy-benzamide]	37	–
4700	2.96	–	48	70	Cc1cc(NC(=O)c2ccc(Cl)c(OCc3cncc4ccccc34)c2)ccc1C(C)C [Example K-12, N-(4-Isopropyl-3-methyl-phenyl)-4-chloro-3-(Isoquinolin-4-yl)methoxy-benzamide]	27	–
